# Assays:
# [1] = tested on: Y1 cells; assay: Viability by trypan blue staining under serum deprivation; type: cell-based; conditions: 0-10 μM for 72 h, then 1% horse serum five days without drug
# Source text: Factors present in the serum are essential for the survival of many nontumorigenic cells. […] For example, the oncogene bc1-2 is not a stimulator of cell proliferation but rather causes inhibition of apoptosis. […] It was reasoned that as factors in the serum are known to act as survival factors for cells, an apoptotic program could be activated only when these factors are remove. To test whether pZαM transfectants undergo programmed cell death under serum deprived condition, the effects of serum starvation on these transfectants was studied. pZαM transfectants and control Yl pZEM transfectants (3×10^5 per well) were plated in low serum medium (1% horse serum) in six well plates, harvested every 24 hours and tested for viability by trypan blue staining (FIG. 7B).
# 1×10^5 Y1 cells were plated in growth medium. Twenty-four hours after plating, the medium was replaced with fresh medium containing various concentrations (0-10 μM) of 5 azaCdR (Sigma). The medium was removed and replaced with fresh medium containing 5 azaCdR every 12 h for a period of 72 h. Following 5 azaCdR treatment the cells were plated onto a six well dish in growth medium (100, 300, 500 cells per well) for cologinecity determinations, in soft agar for determining anchorage independent growth (3×10^3 cells per well) and in low serum (1% horse serum) for five days to determine viability under serum deprived conditions. […]
# [2] = tested on: Y1 cells; assay: Anchorage independent growth in soft agar; type: cell-based; conditions: 0-10 μM for 72 h, then soft agar without drug
# Protocol: Yl cells were maintained as monolayers in F-10 medium which was supplemented with 7.25% heat inactivated horse serum and 2.5% heat inactivated fetal calf serum (Immunocorp, Montreal). All other media and reagents for cell culture were obtained from GIBCO-BRL. Yl cells (1×10^6) were plated on a 150 mm dish (Nunc) 15 hours before transfection. The pZαM expression vector encoding the 5′ of the murine DNA MeTase cDNA (10 ug) was cointroduced into Yl cells with 1 ug of pUCSVneo as a selectable marker by DNA mediated gene transfer using the calcium phosphate protocol (Ausubel et al., 1988, In Current Protocols in Molecular Biology. Wiley and Sons, New York). Selection was initiated 48 hours after transfection by adding 0.25 mg/ml G418 (GIBCO-BRL) to the medium. G418 resistant cells were cloned in selective medium. […] Growth was scored as colonies containing >10 cells, 21 days after plating.
# To determine whether the expression of antisense to the DNA MeTase results in reversal of the tumorigenic potential the ability of the transfectants to grow in an anchorage independent fashion, which is considered an indicator of tumorigenicity, was also determined. […] Growth on soft agar was quantified by visual examination and presented graphically in FIG. 4C. […]
# [3] = target: T1, DNA MeTase (Mus musculus, UniProt P13864); assay: Nearest neighbour analysis of methylated cytosines in CpG of total genomic DNA; type: cell-based, murine; conditions: Y1 cells, 0-10 μM for 72 h
# T1 construct: endogenous in cells; host or cells: Y1 cells (parental, pZEM control transfectants and pZαM antisense transfectants)
# Protocol: To determine whether expression of antisense RNA to the DNA MeTase gene leads to a general reduction in the level of methylation of the genome, we resorted to “nearest neighbour” analysis using [α-32P]-dGTP as previously was performed. This assay enables the determination of the percentage of methylated cytosines residing in the dinucleotide sequence CpG (Razin et al., 1985, IN Biochemistry and Biology of DNA methylation, p. 239, Razin et al., (Ed), Allan R. Liss, Inc. N.Y.). […] Equal amounts of radioactivity were loaded on TLC phosphocellulose plates (Merck) and the 3′ mononucleotides were separated by chromatography in one dimension (iso-butyric acid: H2O:NH4OH in the ratio 66:33:1). The chromatograms were exposed to XAR™ film (Eastman-Kodak) and the spots corresponding to cytosine and 5-methylcytosine were scraped and counted in a β-scintillation counter.
# Transfectants and control DNAs were nicked with DNAaseI, nick translated with a single nucleotide [α-32P]-dGTP using DNA polymerase I and the labelled DNA was digested to 3′ mononucleotide phosphates with micrococal nuclease which cleaves DNA 3′ to the introduced α-32p. The [α-32P] labelled 5′ neighbours of dGMP were separated by chromatography on a TLC plate, the resulting spots for dCMP and dC^metMp were scraped and counted by liquid scintillation. […]
# T1 sequence (P13864 whole entry): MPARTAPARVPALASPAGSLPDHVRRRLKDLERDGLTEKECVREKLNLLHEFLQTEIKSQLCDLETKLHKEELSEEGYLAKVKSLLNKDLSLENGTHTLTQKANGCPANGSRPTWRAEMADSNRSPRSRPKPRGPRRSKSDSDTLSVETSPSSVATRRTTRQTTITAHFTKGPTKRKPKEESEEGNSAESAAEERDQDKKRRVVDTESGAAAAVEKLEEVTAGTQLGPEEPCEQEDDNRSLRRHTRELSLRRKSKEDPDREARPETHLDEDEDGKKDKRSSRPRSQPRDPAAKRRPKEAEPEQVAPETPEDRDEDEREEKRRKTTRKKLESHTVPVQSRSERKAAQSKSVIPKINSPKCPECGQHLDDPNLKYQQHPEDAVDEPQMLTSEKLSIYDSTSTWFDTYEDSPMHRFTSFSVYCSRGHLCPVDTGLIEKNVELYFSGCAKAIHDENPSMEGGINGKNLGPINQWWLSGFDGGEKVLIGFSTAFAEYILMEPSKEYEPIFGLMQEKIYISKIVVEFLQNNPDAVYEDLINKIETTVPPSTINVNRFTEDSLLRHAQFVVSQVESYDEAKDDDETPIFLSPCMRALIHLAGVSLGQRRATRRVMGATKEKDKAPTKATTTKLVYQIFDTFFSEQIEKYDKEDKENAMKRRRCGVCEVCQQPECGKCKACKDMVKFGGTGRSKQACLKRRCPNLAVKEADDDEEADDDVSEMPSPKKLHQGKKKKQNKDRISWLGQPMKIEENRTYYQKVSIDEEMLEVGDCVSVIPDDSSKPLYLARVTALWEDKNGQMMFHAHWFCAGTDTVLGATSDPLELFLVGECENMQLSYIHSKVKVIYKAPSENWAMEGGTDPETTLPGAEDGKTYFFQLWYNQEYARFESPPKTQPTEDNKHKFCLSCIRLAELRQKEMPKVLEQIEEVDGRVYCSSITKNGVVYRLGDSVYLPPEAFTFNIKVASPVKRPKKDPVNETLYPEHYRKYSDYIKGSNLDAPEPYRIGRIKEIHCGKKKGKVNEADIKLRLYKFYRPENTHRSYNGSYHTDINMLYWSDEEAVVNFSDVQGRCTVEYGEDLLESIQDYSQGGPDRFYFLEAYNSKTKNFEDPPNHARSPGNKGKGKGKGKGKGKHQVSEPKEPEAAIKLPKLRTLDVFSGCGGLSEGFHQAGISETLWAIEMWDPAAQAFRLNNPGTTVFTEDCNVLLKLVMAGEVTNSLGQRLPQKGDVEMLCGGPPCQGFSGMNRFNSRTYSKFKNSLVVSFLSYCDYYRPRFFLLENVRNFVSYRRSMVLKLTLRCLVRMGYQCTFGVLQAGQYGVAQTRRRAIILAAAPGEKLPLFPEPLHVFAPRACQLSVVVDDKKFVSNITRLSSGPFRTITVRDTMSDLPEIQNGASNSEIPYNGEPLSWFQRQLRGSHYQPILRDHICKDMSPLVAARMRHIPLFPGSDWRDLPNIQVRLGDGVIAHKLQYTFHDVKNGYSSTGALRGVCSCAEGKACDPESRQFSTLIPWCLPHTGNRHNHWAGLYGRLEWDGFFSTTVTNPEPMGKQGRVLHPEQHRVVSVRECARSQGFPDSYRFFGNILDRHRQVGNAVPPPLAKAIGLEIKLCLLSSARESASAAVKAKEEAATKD
smiles,measurement,setting,value
Nc1ncn([C@H]2C[C@H](O)[C@@H](CO)O2)c(=O)n1 [5 azaCdR],viability of serum-starved cells,[1],decrease the viability of serum-starved cells
same,growth on soft agar,[2],drastically inhibit the growth of Y1 cells on soft agar
same,level of non-methylated cytosine in CpG,[3],increase the level of non-methylated cytosine

# Reference: patent US20020156032A1, “Inhibition of DNA methyltransferase” (priority 1994, published 2002)
